Laboratory results: patent publication US10738041B2, “Ferroportin inhibitors” (Vifor (International) AG, priority 2015, dated 2020)

Tested on: naïve WT C57BL/6 mice
Assay: Hypoferremia in naïve mice
Format: in vivo, mouse
Details: Mus musculus, po, 3 h, naïve WT C57BL/6 mice, relative to vehicle, read-out: Serum Iron Reduction at 3 h (%); for inhibition in vivo at 10 mg/kg: Dose 10 mg/kg p.o.; for inhibition in vivo at 30 mg/kg: Dose 30 mg/kg p.o.; for inhibition in vivo at 100 mg/kg: Dose 100 mg/kg p.o.
Method: Female C57BL/6 mice (Janvier, France) at age of 9 weeks were fed a standard diet (Harlan Provimi Kliba 3436) and treated per os (p.o.) with compounds or the corresponding amount of vehicle at a volume of 10 ml/kg body weight. Fpn inhibitors were formulated in 0.5% methylcellulose/water or 20% cremophor EL/water and dosed p.o. in mice at 10, 30 or 100 mg/kg body weight. Three hours later, mice were pre terminally anesthetized in isoflurane chambers and blood was collected by retro-orbital bleeding. Mice were sacrificed by cervical dislocation and spleens, livers and duodena were harvested and used for biomarker analysis. All experiments have been conducted in compliance with the license approved by the responsible veterinarian authorities. Serum was isolated by centrifugation of blood into gel-containing microtainers and serum iron was determined by the MULTIGENT Iron assay (Abbott Diagnostics, 6K95). Eight mice per group were used and one-way ANOVA with Bonferroni's multiple comparison test was performed to analyze the statistical differences between the experimental groups.

Row | Structure (SMILES) | inhibition in vivo at 10 mg/kg [%] | inhibition in vivo at 30 mg/kg [%] | inhibition in vivo at 100 mg/kg [%]
1 | O=C(NCc1ncccc1F)c1nc(CCNCCc2nc3ccccc3[nH]2)sc1Cl [Example 154] | 13 | 35 | 56
2 | O=C(NCc1ncccc1F)c1coc(CCNCCc2nc3c(F)cccc3[nH]2)n1 [Example 228] | 13 | 26 | 55
3 | O=C(NCc1ncccc1F)c1cncc(C2CN(CCc3nc4ccccc4[nH]3)C2)c1 [compound 237] | 0 | 15 | 27
4 | O=C(NC1CCc2cccnc21)c1csc(CCNCc2nc3ccccc3[nH]2)n1 (stereo not drawn) [Example 39] | 10 | 20 | 35
5 | O=C(NCc1ccccn1)c1coc(CCNCc2nc3ccccc3[nH]2)n1 [Example 137] | -2 | 14 | 25
6 | O=C(NCc1ncccc1F)c1csc(CNCCc2nc3ccccc3[nH]2)n1 [Example 118] | 8 | 24 | 49
7 | O=C(NCc1ncccc1F)c1coc(C2CN(CCc3nc4c(F)cccc4[nH]3)C2)n1 [Example 239] | 12 | 20 | 51
